In US12625139B2, “Methods for modulation of acetyltransferase activity and applications thereof including treatments” (The Board of Trustees of the Leland Stanford Junior …, priority 2019, dated 2026):
Counter-ions that a name gives are not always drawn.

What was measured:
[1] = target: T1, recombinant HAT1 (Homo sapiens, UniProt O14929); test: HAT1 modulator assay (4-pentynoyl CoA, click chemistry, streptavidin-HRP fluorescence); type: biochemical; settings: for modulation of HAT1 activity (agonist or antagonist): screen of fifty compounds, FIG. 8; for inhibition of HAT1 activity: HAT1 assay, FIGS. 7B and 9
T1 construct: FLAG (DYKDDDDK); made in house; host or cells: HEK-293f freestyle cells (human), forskolin-treated; purified by FLAG immunoprecipitation
T1 sequence (O14929 1-419): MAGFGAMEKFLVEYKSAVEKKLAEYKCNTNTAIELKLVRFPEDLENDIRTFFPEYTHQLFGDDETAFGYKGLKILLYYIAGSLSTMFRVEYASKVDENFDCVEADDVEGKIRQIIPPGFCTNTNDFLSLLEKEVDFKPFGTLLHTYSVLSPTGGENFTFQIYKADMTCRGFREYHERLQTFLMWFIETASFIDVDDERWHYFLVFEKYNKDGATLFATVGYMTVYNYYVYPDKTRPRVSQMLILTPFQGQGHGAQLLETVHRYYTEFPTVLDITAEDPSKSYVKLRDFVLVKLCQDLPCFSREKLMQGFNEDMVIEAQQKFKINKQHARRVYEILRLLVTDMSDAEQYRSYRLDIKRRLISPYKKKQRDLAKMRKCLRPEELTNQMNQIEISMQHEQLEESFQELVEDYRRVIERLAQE
Description: Provided in FIG. 4 is an exemplary embodiment of an experimental assay to identify modulators of HAT1. To begin the assay, a putative modulator is mixed with the substrate histone H4 N-terminal peptide, the acetyl-like donor 4-pentynonyl CoA, and recombinant HAT1. The H4 N-terminal peptide is the first 23 amino acids of H4 (SEQ. ID No. 1) with a biotin conjugated at the C-terminus of the peptide. Importantly, K5 and K12 of the H4 N-terminal peptide are available for di-acetylation. The 4-pentynoyl CoA is an acetyl CoA derivative having an […] extending from the acetyl group. The recombinant HAT1 is produced in human cells with a peptide tag […] (FLAG®), which is purified via immunoprecipitation.
Each reaction is carried out within a well of a 96-well plate for one hour at 37° C., resulting in pentynoylation of K5 and K12 of the substrate peptide. The reactions are transferred to a neutravidin-coated 96-well plate to capture the biotinylated peptide via a neutravidin-biotin interaction performed for one hour at room temperature. After washing the wells 3X with PBS-tween, the substrate peptides are exposed to biotinylated azide, which reacts with the pentynoyl groups in a copper (I) click chemistry reaction to further functionalize these appendages with biotin, which is performed at 37° C. for 1 hour. Substrates that were acetylated by HAT1 now have an available biotin extending from K5 and K12. After washing the wells 3X with PBS-tween, streptavidin-HRP is added to the well to bind to every available biotin for one hour at 37° C. After washing the wells 3X with PBS-tween, 10-Acetyl-3,7-dihydroxyphenoxazine (Amplex® Red ThermoFisher® Scientific, Waltham, MA) is added as a substrate of HRP and incubated for 30 minutes to produce a detectable fluorescence (570 nm excitation and 585 nm emission), which is measurable utilizing a plate reader.
The HAT1 enzymatic reaction conditions was also optimized, utilizing 0.1M EDTA, 0.1M DTT or both. As portrayed in the right panel of FIG. 5, 0.1M DTT provided the best activity and was utilized in the assay reaction.
FIG. 6 provides HAT1 enzyme kinetics (left panel) and Michaelis-Menten analysis (right panel). To perform the enzyme kinetics, various amounts of input enzyme were tested in 20 uL reaction with the amount of activity measured over time. […] Assay reactions were run with 15 μM of substrate peptide.

[2] = tested on: CBP/p300 acetyltransferase; settings: stated as known; cited from earlier work

| Compound | inhibition of HAT1 activity [1] | further results |
| --- | --- | --- |
| OCC(O)C(OC1OC(CO)C(O)C(O)C1O)C(O)c1cnn(-c2ccccc2)n1 (stereo not drawn) [NSC 405936, 2-(Hydroxymethyl)-6-[1,3,4-trihydroxy-1-(2-phenyltriazol-4-yl)butan-2-yl]oxyoxane-3,4,5-triol] |  | modulation of HAT1 activity (agonist or antagonist) [1]: agonists |
| O=C(O)C(O)C(O)C(=O)O.OCC(O)C(O)C(O)C(O)C(O)c1nc2ccccc2[nH]1 (stereo not drawn) [NSC 56094, 1-(1H-Benzimidazol-2-yl)hexane-1,2,3,4,5,6-hexol; 2,3-dihydroxybutanedioic acid] |  | modulation of HAT1 activity (agonist or antagonist) [1]: agonists |
| COc1cccc2c1C(=O)c1c(O)c3c(c(O)c1C2=O)CC(O)(/C(C)=N/O)CC3OC1CC(N)C(O)C(C)O1 (stereo not drawn) [NSC 143491, daunomycin 3-oxime hydrochloride] | various ability to inhibit HAT1 |  |
| CC[C@@]1(O)C[C@H](OC2CC(N(C)C)C(OC3CC(O)C(OC4CC(O)C(O)C(C)O4)C(C)O3)C(C)O2)c2c(cc3c(c2O)C(=O)c2c(O)ccc(O)c2C3=O)[C@H]1C(=O)OC (stereo partly drawn) [NSC 265211, Methyl (1R,2R,4S)-4-[5-[5-(4,5-dihydroxy-6-methyloxan-2-yl)oxy-4-hydroxy-6-methyloxan-2-yl]oxy-4-(dimethylamino)-6-methyloxan-2-yl]oxy-2-ethyl-2,5,7,10-tetrahydroxy-6,11-dioxo-3,4-dihydro-1H-tetracene-1-carboxylate] | various ability to inhibit HAT1 |  |
| CC(C)(COP(=O)(O)OP(=O)(O)OC[C@H]1O[C@@H](n2cnc3c(N)ncnc32)[C@H](O)[C@@H]1OP(=O)(O)O)[C@@H](O)C(=O)NCCC(=O)NCCSC(=O)[C@@H](N)CCCCN [lysyl CoA, reference compound] | did not inhibit HAT1 activity | inhibition of CBP/p300 acetyltransferase [2]: known inhibitor of CBP/p300 acetyltransferase |
| CC[C@@]1(O)C[C@H](O[C@H]2C[C@H](N(C)C)[C@H](O[C@H]3C[C@H](O)[C@H](O[C@H]4CCC(=O)[C@H](C)O4)[C@H](C)O3)[C@H](C)O2)c2c(cc3c(c2O)C(=O)c2c(O)cccc2C3=O)[C@H]1C(=O)OC [NSC 208734, aclacinomycin A1] | various ability to inhibit HAT1 |  |
| nogalarol [NSC 86005] |  | modulation of HAT1 activity (agonist or antagonist) [1]: antagonists |
| COC1C(C)OC(OC2CC(C)(O)Cc3cc4c(c(O)c32)C(=O)c2c(O)cc3c(c2C4=O)OC2OC3(C)C(O)C(N(C)C)C2O)C(OC)C1(C)OC (stereo not drawn) [NSC 265450, nagalomycin C] | various ability to inhibit HAT1 |  |
| COc1cccc2c1C(=O)c1c(O)c3c(c(O)c1C2=O)C[C@@](O)(C(C)=O)C[C@@H]3OC1CC(N(Cc2ccccc2)Cc2ccccc2)C(O)C(C)O1.Cl (stereo partly drawn) [NSC 268242, N,N-Dibenzyldaunorubicin] | various ability to inhibit HAT1 |  |
| CC[C@@]1(O)C[C@H](O[C@H]2C[C@H](N(C)C)[C@H](O[C@H]3C[C@@H]4O[C@H]5CC(=O)[C@H](C)O[C@H]5O[C@@H]4[C@H](C)O3)[C@H](C)O2)c2c(cc3c(c2O)C(=O)c2c(O)ccc(O)c2C3=O)[C@H]1C(=O)OC [NSC 243023, cinerubin B] | various ability to inhibit HAT1 |  |
| CC[C@@]1(O)C[C@H](O[C@H]2C[C@H](N(C)C)[C@H](O)[C@H](C)O2)c2c(cc3c(c2O)C(=O)c2c(O)ccc(O)c2C3=O)[C@H]1C(=O)OC [NSC 267229, pyrromycin] | various ability to inhibit HAT1 |  |
| CC[C@@]1(O)C[C@H](O[C@H]2C[C@H](N(C)C)[C@H](O)[C@H](C)O2)c2c(O)c3c(c(O)c2[C@H]1O[C@H]1C[C@H](N(C)C)[C@H](O)[C@H](C)O1)C(=O)c1cccc(O)c1C3=O [NSC 136044, rhodomycin A] | various ability to inhibit HAT1 |  |
| H4 peptide substrate: first 23 amino acids of H4 (SEQ. ID No. 1) with a biotin conjugated at the C-terminus [reference compound] |  | Km ([1]; Michaelis-Menten analysis, H4 peptide substrate varied, FIG. 6): 13 µM |
| CC1(O)Nc2nc3c(ncn3C3OC(CO)C(O)C3O)c(=O)n2C1O (stereo not drawn) [NSC 309109, 3-[3,4-Dihydroxy-5-(hydroxymethyl)oxolan-2-yl]-6,7-dihydroxy-6-methyl-5,7-dihydroimidazo[1,2-a]purin-9-one] |  | modulation of HAT1 activity (agonist or antagonist) [1]: antagonists |
